Source: PMC4597882 (Investigational new drugs, 2009)

Biological target: human TopoII (TopoIIα) (Homo sapiens, UniProt P11388)
Assay: kinetoplast DNA decatenation assay
Assay type: biochemical

Chain of human TopoII (TopoIIα) (P11388 whole entry): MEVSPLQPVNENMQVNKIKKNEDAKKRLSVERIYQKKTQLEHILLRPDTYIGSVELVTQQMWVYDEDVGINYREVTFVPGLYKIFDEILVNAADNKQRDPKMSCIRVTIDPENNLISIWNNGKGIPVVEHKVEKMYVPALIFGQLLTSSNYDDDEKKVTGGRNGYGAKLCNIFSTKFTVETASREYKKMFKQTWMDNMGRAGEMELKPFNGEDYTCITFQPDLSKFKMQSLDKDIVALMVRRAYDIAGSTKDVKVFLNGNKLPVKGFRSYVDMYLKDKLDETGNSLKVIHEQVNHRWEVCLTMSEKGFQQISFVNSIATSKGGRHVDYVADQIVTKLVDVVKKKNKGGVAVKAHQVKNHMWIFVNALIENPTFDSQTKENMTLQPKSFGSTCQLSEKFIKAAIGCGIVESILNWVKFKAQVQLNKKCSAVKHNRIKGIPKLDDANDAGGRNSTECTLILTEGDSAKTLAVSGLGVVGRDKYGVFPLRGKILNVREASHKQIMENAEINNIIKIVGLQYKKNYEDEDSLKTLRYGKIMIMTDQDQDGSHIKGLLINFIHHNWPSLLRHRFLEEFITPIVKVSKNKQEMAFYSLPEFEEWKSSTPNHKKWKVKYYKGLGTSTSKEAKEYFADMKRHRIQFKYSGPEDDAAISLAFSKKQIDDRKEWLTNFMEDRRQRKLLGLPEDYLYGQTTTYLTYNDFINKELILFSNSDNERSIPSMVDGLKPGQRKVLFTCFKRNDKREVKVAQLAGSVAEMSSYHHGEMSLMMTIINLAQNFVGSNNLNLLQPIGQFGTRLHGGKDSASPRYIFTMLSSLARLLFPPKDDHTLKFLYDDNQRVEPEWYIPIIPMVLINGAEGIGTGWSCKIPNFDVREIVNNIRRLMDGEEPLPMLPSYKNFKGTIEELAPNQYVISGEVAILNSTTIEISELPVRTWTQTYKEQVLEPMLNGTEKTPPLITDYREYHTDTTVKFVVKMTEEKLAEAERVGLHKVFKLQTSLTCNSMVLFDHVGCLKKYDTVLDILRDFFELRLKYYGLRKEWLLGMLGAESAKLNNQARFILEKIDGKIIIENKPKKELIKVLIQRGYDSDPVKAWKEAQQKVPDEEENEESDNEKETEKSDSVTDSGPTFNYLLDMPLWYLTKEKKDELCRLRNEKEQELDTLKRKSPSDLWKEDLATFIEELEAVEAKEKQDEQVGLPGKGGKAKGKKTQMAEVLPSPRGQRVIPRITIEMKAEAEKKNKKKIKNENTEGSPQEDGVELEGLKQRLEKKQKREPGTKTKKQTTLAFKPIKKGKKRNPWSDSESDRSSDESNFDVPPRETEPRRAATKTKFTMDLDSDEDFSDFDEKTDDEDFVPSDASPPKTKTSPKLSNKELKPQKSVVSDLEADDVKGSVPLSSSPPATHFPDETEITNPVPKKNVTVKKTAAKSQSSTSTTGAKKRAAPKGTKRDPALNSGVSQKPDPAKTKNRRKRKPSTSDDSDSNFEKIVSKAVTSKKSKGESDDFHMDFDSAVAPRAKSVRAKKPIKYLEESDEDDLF

Question: With `CC(=O)O[C@@H]1[C@@H](C)O[C@@H](c2ccc3c(c2O)[C@@H](O)[C@]24O[C@@]2(C3=O)[C@@]2(O)C(=O)C=C(C)C[C@@]2(O)C[C@@H]4O)C[C@H]1OC(=O)/C=C/C=C/C=C/C=C/C(=O)Nc1c(O)c2ccc(O)c(Cl)c2oc1=O` [SD8, Simocyclinone D8] as the molecule, how does the IC50 read?
Answer: ~80 µM
